One assay has as its system HIV-2 antibodies. The assay is described as follows: ELISA with peptide-coated wells, HIV-2 seropositive plasma pool serially diluted. It is filed as binding, human. The settings on record: Test 314. The protocol:
(§1) A preferred convenient and classical technique for the determination of antibodies against HIV-1 or HIV-2 using a peptide or a peptide mixture of the present invention is an enzyme-linked immunosorbent assay (ELISA). In this assay, for example, a peptide, peptide mixture or combination of the present invention is adsorbed onto, or covalently coupled to, the wells of a microtiter plate. The wells are then treated with the sera or analyte to be tested. After washing, antihuman IgG or antihuman IgM labeled with peroxidase is added to the wells. The determination of the peroxidase is performed with a corresponding substrate, e.g., with o-phenylene diamine. Without departing from the usefulness of the illustrative assay, the peroxidase can be exchanged by another label, e.g., by a radioactive, fluorescence chemiluminescence or infrared emitting label.
(§2) O.D. Values were obtained at 450 nm and the blank values measured with the sample dilution buffer were not subtracted.
(§3) Samples NEIA-2*2, BBI-1-162 to 168, 87B140, 87L139, 87V103 are all negative for HIV antibodies. Sample LSPQ-S9-1 is an early seroconverter (HIV-1). The series labeled CAP-113 to CAP-120 corresponds to a pool of seven HIV-1 positive plasma samples serially diluted with an HIV-negative plasma. CAP-113 is the pool diluted 50-fold with the HIV-negative plasma; CAP-114 is diluted 100-fold; CAP-115 is diluted 200-fold; etc. Similarly, the series labeled CAP-222 to CAP-230 corresponds to a pool of seven HIV-2 confirmed seropositive plasma samples. CAP-222 is diluted by 50 with an HIV-negative plasma; CAP-223 by 100; etc. Before the assay is done, each sample, including the CAP-series, is further diluted by 50 with the sample dilution buffer. In these tests, the cut-off for seropositivity is defined as the sum of the O.D. value for sample NEIA-2*2 plus 0.100.
(§4) Each well of the microtiter plate is saturated with 100 μl of a solution containing a peptide or mixture of peptides (5 μg/ml) and left overnight. The wells are emptied and washed twice with a washing buffer (Tris, 0.043M; NaCl, 0.5M; thimerosal, 0.01% w/v; Tween 20, 0.05% v/v; pH 7.4). The wells are then saturated with 0.35 ml of washing buffer for 1 hr. at 37° C. and washed once with the same buffer. Serum samples to be analyzed are diluted with specimen buffer (washing buffer plus casein, 0.05% w/v). The wells are rinsed with washing buffer prior to the addition of the diluted serum sample (0.1 ml). These are left to incubate for 1 hr. at room temperature. The wells are then emptied, washed twice rapidly and then once for two minutes with washing buffer. […] The wells are then emptied and washed twice rapidly with washing buffer and then five times in which the buffer was in contact with the well 2 minutes per washing. The substrate solution (3,3',5,5'-tetramethylbenzidine, 8 mg per ml of DMSO) is diluted with 100 volumes 0.1M citrate-acetate buffer, pH 5.6 containing 0.1% v/v of 30% H2 O2 and added to each well (0.1 ml per well). After 10 minutes the contents of each well is treated with 0.1 ml 2N H2 SO4 and the optical density read at 450 nm. All determinations are done in duplicate.
(§5) Peptide cocktails were prepared by mixing together equal volumes of two peptide solutions each at 10 ug/ml. One cocktail used peptides BCH-87c and BCH-202c and the other cocktail was a mixture of BCH-87ck and BCH-202ck. Each cocktail was used to coat two series of plates as described earlier.

In assay [1] the test system is HIV-1 antibodies. Nature of the assay: ELISA with peptide-coated wells, HIV-1 antibody positive samples (diluted plasma pool, seroconversion samples). The class given is binding, human. The protocol: as §1, §2, §3
as §4, with “duplicate. […]” for “duplicate.”
For orientation: In an ELISA, binding on a coated surface is turned into a signal by an enzyme label.

The test system of another assay is HIV antibodies. The assay is described as follows: ELISA with peptide-coated wells, samples negative for HIV antibodies or not described. The class given is binding, human. The protocol: as §1, §2, §3, §4, §5
Assay [2] has as its system HIV-1 antibodies. Particulars: cited from earlier work.

Positions of bridges follow the written chain, without caps; N, C: chain ends. Residues, ends and D or L forms follow the SMILES beside them. A value given as a limit tells only on which side of the number the result lay.

Consider `CC[C@H](C)[C@H](NC(=O)CNC(=O)[C@H](CC(C)C)NC(=O)[C@H](CC(C)C)NC(=O)[C@H](CCC(N)=O)NC(=O)[C@H](CCC(N)=O)NC(=O)[C@H](CC(=O)O)NC(=O)[C@H](CCCCN)NC(=O)[C@H](CC(C)C)NC(=O)[C@H](Cc1ccc(O)cc1)NC(=O)[C@H](CCCNC(=N)N)NC(=O)[C@H](CCC(=O)O)NC(=O)[C@@H](NC(=O)[C@H](C)NC(=O)[C@H](CC(C)C)NC(=O)[C@@H](NC(=O)[C@H](CCCCN)NC(=O)[C@@H](N)CCCCN)[C@@H](C)CC)C(C)C)C(=O)N[C@@H](Cc1c[nH]c2ccccc12)C(=O)NCC(=O)N[C@H]1CSSC[C@@H](C(=O)N[C@H](C(=O)N[C@H](C(=O)N[C@@H](C)C(=O)N[C@H](C(=O)N2CCC[C@H]2C(=O)N[C@@H](Cc2c[nH]c3ccccc23)C(=O)N[C@@H](CC(N)=O)C(=O)N[C@@H](C)C(=O)N[C@@H](CO)C(=O)O)C(C)C)[C@@H](C)O)[C@@H](C)O)NC(=O)[C@H]([C@@H](C)CC)NC(=O)[C@H](CC(C)C)NC(=O)[C@H](CCCCN)NC(=O)CNC(=O)[C@H](CO)NC1=O` [BCH-266] (H-KKILAVERYLKDQQLLGIWGCSGKLICTTAVPWNAS-OH; disulfide 21-27), for which the “O.D. 450 nm” value in the assay with HIV-2 antibodies (sample CAP-223 (HIV-2 positive pool diluted by 100)) amounted to 0.075; with HIV-2 antibodies (sample CAP-224 (HIV-2 positive pool, serial dilution)) it was 0.084; with HIV-2 antibodies (sample CAP-225 (HIV-2 positive pool, serial dilution)), 0.135; in the assay with HIV-2 antibodies (sample CAP-226 (HIV-2 positive pool, serial dilution)), 0.140; in the assay on HIV-2 antibodies (sample CAP-227 (HIV-2 positive pool, serial dilution)), 0.085; in the assay on HIV-2 antibodies (sample CAP-228 (HIV-2 positive pool, serial dilution)), 0.091. Also, the “O.D. 450 nm” value is 0.123 with HIV-2 antibodies (sample CAP-230 (HIV-2 positive pool, serial dilution)); more than 2.8 in the assay with HIV-1 antibodies [1] (Test 314, sample CAP-113 (HIV-1 positive plasma pool diluted 50-fold)); more than 2.8 in the assay with HIV-1 antibodies [1] (Test 314, sample CAP-114 (HIV-1 positive pool diluted 100-fold)); more than 2.8 with HIV-1 antibodies [1] (Test 314, sample CAP-115 (HIV-1 positive pool diluted 200-fold)); 2.376 with HIV-1 antibodies [1] (Test 314, sample CAP-116 (HIV-1 positive pool, serial dilution)); 1.569 in the assay with HIV-1 antibodies [1] (Test 314, sample CAP-117 (HIV-1 positive pool, serial dilution)). Also, the “O.D. 450 nm” value with HIV-1 antibodies [1] (Test 314, sample CAP-118 (HIV-1 positive pool, serial dilution)) is given as 0.934; in the assay on HIV-1 antibodies [1] (Test 314, sample CAP-119 (HIV-1 positive pool, serial dilution)), 0.567; with HIV-1 antibodies [1] (Test 314, sample CAP-120 (HIV-1 positive pool, serial dilution)), 0.376; with HIV-1 antibodies [1] (Test 350, sample CAP-10 (progressively higher dilutions)), more than 2.8; in the assay on HIV-1 antibodies [1] (Test 350, sample CAP-11 (progressively higher dilutions)), more than 2.8; in the assay with HIV-1 antibodies [1] (Test 350, sample CAP-12 (progressively higher dilutions)), more than 2.8. Moreover, the “O.D. 450 nm” value in the assay on HIV-1 antibodies [1] (Test 350, sample CAP-13 (progressively higher dilutions)) is 2.021; in the assay on HIV-1 antibodies [1] (Test 350, sample CAP-14 (progressively higher dilutions)), 1.248; in the assay on HIV-1 antibodies [1] (Test 350, sample CAP-15 (progressively higher dilutions)), 0.680; with HIV-1 antibodies [1] (Test 350, sample CAP-16 (progressively higher dilutions)), 0.366; with HIV-1 antibodies [1] (Test 350, sample CAP-17 (progressively higher dilutions)) it was 0.198; in the assay with HIV-1 antibodies [1] (Test 350, sample CAP-18 (progressively higher dilutions)), 0.116. In addition, the “O.D. 450 nm” value in the assay on HIV-1 antibodies [1] (Test 350, sample CAP-19 (progressively higher dilutions)) worked out at 0.056; in the assay on HIV antibodies (Test 314, sample BBI-1-162 (negative for HIV antibodies)) it was 0.028; in the assay with HIV antibodies (Test 314, sample BBI-1-169 (not described)), 0.138; with HIV antibodies (Test 314, sample BBI-1-172 (not described)), 0.030; in the assay on HIV antibodies (Test 314, sample NEIA-2*2 (negative for HIV antibodies)) it was 0.069; in the assay on HIV antibodies (Test 350, sample 2-87-L-139 (negative for HIV antibodies)), 0.147. Further, the “O.D. 450 nm” value with HIV antibodies (Test 350, sample 2-87-V-103 (negative for HIV antibodies)) turned out to be 0.020; in the assay with HIV antibodies (Test 350, sample 89-D-307 (not described)) it was 0.030; in the assay on HIV antibodies (Test 350, sample NEIA-2*2 (negative for HIV antibodies)), 0.023.
As for SGKLIC, the “immunoreactivity with HIV-1 positive sera” value in the assay with HIV-1 antibodies [2] (Gnann et al. 1987, 22 HIV-1 positive sera tested) was “not immunoreactive”.
On to “SGKLICTTAVPWNAS [short synthetic peptide spanning residues 606 to 620 of gp41 (HIV-1)]”, for which the sensitivity in the assay with HIV-1 antibodies [2] (U.S. Ser. No. 120,027, 6 of 57 confirmed positive not detected) is 89%. For the same molecule, in the assay on HIV-1 antibodies [2] (U.S. Ser. No. 120,027), the specificity is 63/63.

The values are drawn from patent US5241047A, “Synthetic peptides and mixtures thereof for detecting HIV antibodies” (BioChem Pharma Inc., priority 1990, dated 1993).
